System: adult patients with uncontrolled gout
Assay: Health Assessment Questionnaire (HAQ-DI, HAQ pain, HAQ health), open-label study
Type: in vivo, human
Parameters: key to HAQ-Health, Observed, Median / HAQ-Health, Change from Baseline, Median: 0-100 scale; 0 = very well, 100 = very poor health; key to HAQ-DI, Observed, Median / HAQ-DI, Change from Baseline, Median: HAQ-DI scale 0-3; 0 = no difficulty, 3 = unable to do
Conditions: mITT Population
Method: Quality-of-Life Assessment: The HAQ was administered at the Screening and Week −4 or week −6 (prior to the first dose of MTX) Visits during the MTX Run-in Period for the open-label and randomized studies, respectively; prior to pegloticase infusion at the Day 1 and Weeks 14, 24 and 36 Visits or at the Day 1 and weeks 6, 14, 20, 24, 30, 36, and 44 visits during the Pegloticase+IMM Period for the open-label and randomized studies, respectively; at the End of Pegloticase Infusions Visit (if applicable), the Week 52/End of Study/Early Termination Visit and the Post Treatment Periods 3 and 6 Month Follow-up Visits (open-label study). The HAQ-DI is a self-report functional status instrument that can be filled out by a subject in less than 5 minutes and requires 1 minute to score. The index measures disability over the past week by asking a total of 20 questions covering 8 domains of function: dressing and grooming, arising, eating, walking, hygiene, reach, grip, and usual activities. There are at least 2 questions in each domain and the 8 domains represent a comprehensive set of functional activities. The HAQ-DI is calculated by scoring the answer to each question in the HAQ from 0 to 3, with 0 representing the ability to do without any difficulty, and 3 representing inability to do. Any activity that requires assistance from another individual or requires the use of an assistive device raises a 0 or 1 score to a 2. The highest score for each of the 8 domains is summed (range from 0 to 24) and divided by 8 to yield, on a scale with 25 possible values, a Functional Disability Index with a range from 0 to 3. The disability index is based on the number of domains answered and is computed only if the subject completes answers to at least 6 domains. The HAQ pain scale asks subjects to record how much pain they have had in the past week on a scale of 0 to 100, where zero represents “no pain” and 100 represents “severe pain”. The HAQ health scale is a measure of overall health. Subjects are asked to rate how well they are doing on a score of 0 to 100, where zero represents “very well” and 100 represents “very poor” health.

[1] = Early Termination Visit, Methotrexate Baseline
[2] = Early Termination Visit, Pegloticase Baseline
[3] = End of Pegloticase Infusions Visit, Methotrexate Baseline
[4] = End of Pegloticase Infusions Visit, Pegloticase Baseline

pegloticase
HAQ-DI, Change from Baseline, Mean (SD) (Day 1, Methotrexate Baseline): 0.1 (0.27)
HAQ-DI, Change from Baseline, Median (Day 1, Methotrexate Baseline): 0.0
HAQ-DI, Observed, Mean (SD) (Day 1, Methotrexate Baseline): 0.8 (0.77)
HAQ-DI, Observed, Median (Day 1, Methotrexate Baseline): 0.5
HAQ-Health, Change from Baseline, Mean (SD) (Day 1, Methotrexate Baseline): −8.8 (38.29)
HAQ-Health, Change from Baseline, Median (Day 1, Methotrexate Baseline): 10.0
HAQ-Health, Observed, Mean (SD) (Day 1, Methotrexate Baseline): 37.8 (27.06)
HAQ-Health, Observed, Median (Day 1, Methotrexate Baseline): 25.0
HAQ-Pain, Change from Baseline, Mean (SD) (Day 1, Methotrexate Baseline): 2.3 (19.93)
HAQ-Pain, Change from Baseline, Median (Day 1, Methotrexate Baseline): 0.0
HAQ-Pain, Observed, Mean (SD) (Day 1, Methotrexate Baseline): 42.5 (22.24)
HAQ-Pain, Observed, Median (Day 1, Methotrexate Baseline): 40.0
HAQ-DI, Change from Baseline, Mean (SD) [1]: 0.2 (0.90)
HAQ-DI, Change from Baseline, Median [1]: −0.3
HAQ-DI, Observed, Mean (SD) [1]: 0.7 (0.51)
HAQ-DI, Observed, Median [1]: 0.6
HAQ-Health, Change from Baseline, Mean (SD) [1]: −0.7 (16.77)
HAQ-Health, Change from Baseline, Median [1]: 8.0
HAQ-Health, Observed, Mean (SD) [1]: 28.3 (40.72)
HAQ-Health, Observed, Median [1]: 10.0
HAQ-Pain, Change from Baseline, Mean (SD) [1]: 19.0 (36.51)
HAQ-Pain, Change from Baseline, Median [1]: 7.0
HAQ-Pain, Observed, Mean (SD) [1]: 46.7 (40.41)
HAQ-Pain, Observed, Median [1]: 40.0
HAQ-DI, Change from Baseline, Mean (SD) [2]: 0.2 (0.56)
HAQ-DI, Change from Baseline, Median [2]: 0.1
HAQ-DI, Observed, Mean (SD) [2]: 0.7 (0.51)
HAQ-DI, Observed, Median [2]: 0.6
HAQ-Health, Change from Baseline, Mean (SD) [2]: −11.7 (62.52)
HAQ-Health, Change from Baseline, Median [2]: −10.0
HAQ-Health, Observed, Mean (SD) [2]: 28.3 (40.72)
HAQ-Health, Observed, Median [2]: 10.0
HAQ-Pain, Change from Baseline, Mean (SD) [2]: 0.0 (45.83)
HAQ-Pain, Change from Baseline, Median [2]: −10.0
HAQ-Pain, Observed, Mean (SD) [2]: 46.7 (40.41)
HAQ-Pain, Observed, Median [2]: 40.0
HAQ-DI, Change from Baseline, Mean (SD) [3]: −0.1 (0.35)
HAQ-DI, Change from Baseline, Median [3]: −0.1
HAQ-DI, Observed, Mean (SD) [3]: 0.1 (0.18)
HAQ-DI, Observed, Median [3]: 0.1
HAQ-Health, Change from Baseline, Mean (SD) [3]: −80.0 (0.00)
HAQ-Health, Change from Baseline, Median [3]: −80.0
HAQ-Health, Observed, Mean (SD) [3]: 0.0 (0.00)
HAQ-Health, Observed, Median [3]: 0.0
HAQ-Pain, Change from Baseline, Mean (SD) [3]: 2.5 (74.25)
HAQ-Pain, Change from Baseline, Median [3]: 2.5
HAQ-Pain, Observed, Mean (SD) [3]: 40.0 (56.57)
HAQ-Pain, Observed, Median [3]: 40.0
HAQ-DI, Change from Baseline, Mean (SD) [4]: −0.1 (0.35)
HAQ-DI, Change from Baseline, Median [4]: −0.1
HAQ-DI, Observed, Mean (SD) [4]: 0.1 (0.18)
HAQ-DI, Observed, Median [4]: 0.1
HAQ-Health, Change from Baseline, Mean (SD) [4]: −45.0 (49.50)
HAQ-Health, Change from Baseline, Median [4]: −45.0
HAQ-Health, Observed, Mean (SD) [4]: 0.0 (0.00)
HAQ-Health, Observed, Median [4]: 0.0
HAQ-Pain, Change from Baseline, Mean (SD) [4]: 2.5 (74.25)
HAQ-Pain, Change from Baseline, Median [4]: 2.5
HAQ-Pain, Observed, Mean (SD) [4]: 40.0 (56.57)
HAQ-Pain, Observed, Median [4]: 40.0
HAQ-DI, Change from Baseline, Mean (SD) (Week 14, Methotrexate Baseline): −0.2 (0.77)
HAQ-DI, Change from Baseline, Median (Week 14, Methotrexate Baseline): 0.0
HAQ-DI, Observed, Mean (SD) (Week 14, Methotrexate Baseline): 0.5 (0.41)
HAQ-DI, Observed, Median (Week 14, Methotrexate Baseline): 0.5
HAQ-Health, Change from Baseline, Mean (SD) (Week 14, Methotrexate Baseline): −12.5 (36.79)
HAQ-Health, Change from Baseline, Median (Week 14, Methotrexate Baseline): −5.0
HAQ-Health, Observed, Mean (SD) (Week 14, Methotrexate Baseline): 36.6 (33.87)
HAQ-Health, Observed, Median (Week 14, Methotrexate Baseline): 16.5
HAQ-Pain, Change from Baseline, Mean (SD) (Week 14, Methotrexate Baseline): −13.9 (30.48)
HAQ-Pain, Change from Baseline, Median (Week 14, Methotrexate Baseline): −12.5
HAQ-Pain, Observed, Mean (SD) (Week 14, Methotrexate Baseline): 27.1 (26.25)
HAQ-Pain, Observed, Median (Week 14, Methotrexate Baseline): 15.0
HAQ-DI, Change from Baseline, Mean (SD) (Week 14, Pegloticase Baseline): −0.3 (0.80)
HAQ-DI, Change from Baseline, Median (Week 14, Pegloticase Baseline): 0.0
HAQ-DI, Observed, Mean (SD) (Week 14, Pegloticase Baseline): 0.5 (0.41)
HAQ-DI, Observed, Median (Week 14, Pegloticase Baseline): 0.5
HAQ-Health, Change from Baseline, Mean (SD) (Week 14, Pegloticase Baseline): −4.3 (43.82)
HAQ-Health, Change from Baseline, Median (Week 14, Pegloticase Baseline): −1.0
